Measurements from patent publication US20140329858A1, “Cyclic Urea Derivatives As Androgen Receptor Antagonists” (priority 2011, published 2014).
pIC50: −log10 of the molar value.

What follows are molecules tested on Vcap cells (assay: Dihydrotestosterone (DHT) mediated XTT cell proliferation assay for screening AR antagonists using Vcap cells). Conditions: Homo sapiens, 240 h, in the presence of 0.2 nM DHT, XTT readout on Day 10, IC50 curves from 8 concentrations.
Format: cell-based
Description: Dihydrotestosterone (DHT) Mediated XTT Cell Proliferation Assay for Screening AR Antagonists Using Vcap cells
The Vcap cells (4×10^6 cells) were seeded in a T-75 flask containing DMEM with 15% FBS. After 72 hours, the media was removed; the cells were washed once and replaced with phenol red free DMEM containing 8% charcoal stripped serum. Then, the cells were starved in phenol red free DMEM with 8% charcoal stripped serum for 5 days. Following the starvation, the cells were harvested and seeded in 96 well plates (10×10^3 cells per well) in phenol red free DMEM with 8% charcoal stripped serum (Day 0). The cells were allowed to settle and on Day 4 they were treated with different concentrations of the compound (30 μM, 10 μM, 1 μM, 500 nM, 100 nM, 10 nM, 1 nM, 0.1 nM) in the presence of 0.2 nM DHT. DHT alone and a DMSO controls were also included. All treatments were done in triplicate. The drugs were replenished on Day 7 and the cells were allowed to grow for another 72 hours. On Day 10, the experiment was terminated by adding the XTT reagent (2,3-bis[2-methoxy-4-notro-5-sulfophenyl]-2H-tetrazolium-5-caboxyanilide inner salt) dissolved in Phenol red free DMEM without serum. The cells with the XTT reagents were incubated inside the CO2 incubator for 3-4 hours for color development; after which the readings were taken at […] using a spectramax Gemini plate reader.
Data fitting: The IC50 curves for the 8 compound concentrations were calculated with GraphPad Prism software using the sigmoidal dose-response function. (Graphpad Software, San Diego, Calif., USA).

SMILES	pIC50
CNC(=S)c1ccc(N2C(=O)N(c3ccc(C#N)c(C(F)(F)F)c3)[C@H]3CCCC[C@@H]32)cc1F [Example 41, 4-((3aS,7 aS)-3-(4-cyano-3-(trifluoromethyl)phenyl)-2-oxooctahydro-1H-benzo[d]imidazol-1-yl)-2-fluoro-N-methylbenzothioamide]	6.87
CNC(=O)c1ccc(C2=C[C@H]3[C@@H](CC2)N(c2ccc(C#N)c(C(F)(F)F)c2)C(=O)N3C)cc1F (racemic) [Example 89, Cis-4-(1-(4-cyano-3-(trifluoromethyl)phenyl)-3-methyl-2-oxo-2,3,3a,6,7,7a-hexahydro-1H-benzo[d]imidazol-5-yl)-2-fluoro-N-methylbenzamide (±)]	6.00
CNC(=O)c1ccc(N2C(=O)N(c3ccc(C#N)c(C(F)(F)F)c3)[C@@H]3CCCC[C@H]32)cc1C (racemic) [Example 39, Trans-4-(3-(4-cyano-3-(trifluoromethyl)phenyl)-2-oxooctahydro-1H-benzo[d]im-idazol-1-yl)-N,2-dimethylbenzamide (±)]	6.40
CNC(=O)c1ccc(C2=C[C@@H]3[C@@H](CC2)N(c2ccc(C#N)c(C(F)(F)F)c2)C(=O)N3C)cc1F (racemic) [Example 88, Trans-4-(1-(4-cyano-3-(trifluoromethyl)phenyl)-3-methyl-2-oxo-2,3,3a,6,7,7a-hexahydro-1H-benzo[d]imidazol-5-yl)-2-fluoro-N-methylbenzamide (±)]	6.66
Cc1cc(N2C(=O)N(c3ccc(C#N)c(C(F)(F)F)c3)[C@H]3CCCC[C@@H]32)ccc1C(N)=O [Example 70, 4-((3aS,7aS)-3-(4-cyano-3-(trifluoromethyl)phenyl)-2-oxooctahydro-1H-benzo[d]imidazol-1-yl)-2-methylbenzamide]	6.14
CCOC(=O)c1ccc(N2C(=O)N(c3ccc(C#N)c(C(F)(F)F)c3)[C@@H]3CCCC[C@H]32)cc1F (racemic) [Example 6, Trans-ethyl-4-(3-(4-cyano-3-trifluoromethyl)phenyl)-2-oxooctahydro-1H-benzo[d]imidazol-1-yl)-2-fluorobenzoate (±)]	< 5.00
CONC(=O)c1ccc(N2C(=O)N(c3ccc(C#N)c(C(F)(F)F)c3)[C@@H]3CCCC[C@H]32)cc1F (racemic) [Example 18, Trans-4-(3-(4-cyano-3-(trifluoromethyl)phenyl)-2-oxooctahydro-1H-benzo[d]im-idazol-1-yl)-2-fluoro-N-methoxybenzamide (±)]	6.43
N#Cc1ccc(N2C(=O)N(c3ccc(C#N)c(C(F)(F)F)c3)[C@@H]3CCCC[C@H]32)cc1C(F)(F)F (racemic) [Example 2, Trans-4,4′-(2-oxohexahydro-1H-benzo[d]imidazole-1,3(2H)-diyl)bis(2-(trifluoromethyl)benzonitrile) (±)]	6.62
N#Cc1ccc(N2C(=O)N(c3ccc(C(=O)N[C@@H]4CCOC4)c(F)c3)[C@H]3CCCC[C@@H]32)cc1C(F)(F)F [Example 36]	6.69
CNC(=O)c1ccc(N2C(=O)N(c3ccc(C#N)c(C(F)(F)F)c3)[C@@H]3CCCC[C@H]32)cc1F (racemic) [Example 1, Trans-4-{3-[4-cyano-3-(trifluoromethyl)phenyl]-2-oxo-octahydro-1H-1,3-benzodiazol-1-yl}-2-fluoro-N-Methylbenzamide (±)]	6.61
CC(=O)c1ccc(N2C(=O)N(c3ccc(C#N)c(C(F)(F)F)c3)[C@H]3CCCC[C@@H]32)cc1F [Example 45, 4-((3aS,7aS)-3-(4-acetyl-3-fluorophenyl)-2-oxooctahydro-1H-benzo[d]imidazol-1-yl)-2-(trifluoromethyl)benzonitrile]	5.99
N#Cc1ccc(N2C(=O)N(c3ccc(C(=O)NOCC4CCC4)c(F)c3)[C@@H]3CCCC[C@H]32)cc1C(F)(F)F (racemic) [Example 21, Trans-4-(3-(4-cyano-3-(trifluoromethyl)phenyl)-2-oxooctahydro-1H-benzo[c]im-idazol-1-yl)-N-(cyclobutylmethoxy)-2-fluorobenzamide (±)]	6.59
N#Cc1ccc(N2C(=O)N(c3ccc4c(c3)CCO4)[C@H]3CCCC[C@@H]32)cc1C(F)(F)F [Example 58, 4-((3aS,7aS)-3-(2,3-dihydrobenzofuran-5-yl)-2-oxooctahydro-1H-benzo[d]imidazol-1-yl)-2-(trifluoromethyl)benzonitrile]	6.26
CNC(=O)c1ccc(N2C(=O)N(c3ccc(C#N)c(C(F)(F)F)c3)[C@H]3C=CCC[C@@H]32)cc1F (racemic) [Example 86, trans-4-(3-(4-cyano-3-(trifluoromethyl)phenyl)-2-oxo-2,3,3a,6,7,7a-hexahydro-1H-benzo[c]imidazol-1-yl)-2-fluoro-N-methylbenzamide (±)]	7.37
N#Cc1ccc(N2C(=O)N(c3ccc(C(N)=O)nc3)[C@H]3CCCC[C@@H]32)cc1C(F)(F)F [Example 55, 5-((3aS,7aS)-3-(4-cyano-3-(trifluoromethyl)phenyl)-2-oxooctahydro-1H-benzo[d]imidazol-1-yl)picolinamide]	6.76
N#Cc1ccc(CN2C(=O)N(c3ccc(C#N)c(C(F)(F)F)c3)[C@@H]3CCCC[C@H]32)cn1 (racemic) [Example 48, Trans-5-((-(4-cyano-3-(trifluoromethyl)phenyl)-2-oxooctahydro-1H-benzo[d]im-idazol-1-yl)methyl)picolinonitrile (±)]	< 5.00
CCN(CC)CCONC(=O)c1ccc(N2C(=O)N(c3ccc(C#N)c(C(F)(F)F)c3)[C@@H]3CCCC[C@H]32)cc1F (racemic) [Example 26, Trans-4-(3-(4-cyano-3-(trifluoromethyl)phenyl)-2-oxooctahydro-1H-benzo[d]im-idazol-1-yl)-N-(2-(diethylamino)ethoxy)-2-fluorobenzamide (±)]	7.12
COCCONC(=O)c1ccc(N2C(=O)N(c3ccc(C#N)c(C(F)(F)F)c3)[C@@H]3CCCC[C@H]32)cc1F (racemic) [Example 20, Trans-4-(3-(4-cyano-3-(trifluoromethyl)phenyl)-2-oxooctahydro-1H-benzo[d]im-idazol-1-yl)-2-fluoro-N-(2-methoxyethoxy)benzamide (±)]	6.49
Cc1ccncc1N1C(=O)N(c2ccc(C#N)c(C(F)(F)F)c2)[C@H]2CCCC[C@@H]21 [Example 63, 4-((3aS,7aS)-3-(4-methylpyridin-3-yl)-2-oxooctahydro-1H-benzo[d]imidazol-1-yl)-2-(trifluoromethyl)benzonitrile]	5.64
CNC(=O)c1ccc(N2C(=O)N(c3ccc(C#N)c(C(F)(F)F)c3)[C@@H]3CCC(O)C[C@H]32)cc1F (mixture of isomers) [Example 82, Trans-4-(3-(4-cyano-3-(trifluoromethyl)phenyl)-6-hydroxy-2-oxooctahydro-1H-benzo[d]imidazol-1-yl)-2-fluoro-N-methylbenzamide (±)]	6.23

Same assay, conditions: in the presence of 0.2 nM DHT, XTT readout on Day 10, IC50 curves from 8 concentrations

SMILES	pIC50
N#Cc1ccc(N2C(=O)N(c3ccnc(F)c3)[C@@H]3CCCC[C@H]32)cc1C(F)(F)F (relative stereo) [Example 10a, Trans-4-(3-(2-fluoropyridin-4-yl)-2-oxooctahydro-1H-benzo[d]imidazol-1-yl)-2-(trifluoromethyl)benzonitrile (+)]	5.59
CNC(=O)c1ccc(N2C(=O)N(c3ccc(C#N)c(C(F)(F)F)c3)[C@@H]3COCC[C@H]32)cc1F (relative stereo) [Example 71b, Trans-4-{3-[4-Cyano-3-(trifluoromethyl)phenyl]-2-oxo-octahydropyrano[3,4-d]imidazolidin-1-yl}-2-fluoro-N-methylbenzamide (−)]	6.42
CNC(=O)c1ccc(N2C(=O)N(c3ccc(C#N)c(C(F)(F)F)c3)[C@@H]3CC=CC[C@H]32)cc1F (relative stereo) [Example 83b]	7.50
CNC(=O)c1ccc(N2C(=O)N(c3ccc(C#N)c(C(F)(F)F)c3)[C@@H]3CC=CC[C@H]32)cc1F (relative stereo) [Example 83a]	< 5.00
CNC(=O)c1ccc(N2C(=O)N(c3ccc(C#N)c(C(F)(F)F)c3)[C@@H]3COCC[C@H]32)cc1F (relative stereo) [Example 71a, Trans-4-{3-[4-Cyano-3-(trifluoromethyl)phenyl]-2-oxo-octahydropyrano[3,4-d]imidazolidin-1-yl}-2-fluoro-N-methylbenzamide (+)]	< 5.00
N#Cc1ccc(N2C(=O)N(c3ccc(C#N)c(C(F)(F)F)c3)[C@@H]3CCCC[C@H]32)cc1C(F)(F)F (relative stereo) [Example 2b, Trans-4,4′-(2-oxohexahydro-1H-benzo[d]imidazole-1,3(2H)-diyl)bis(2-(trifluoromethyl)benzonitrile) (+)]	< 5.00
CC(COC(C)(C)C)ONC(=O)c1ccc(N2C(=O)N(c3ccc(C#N)c(C(F)(F)F)c3)[C@@H]3CCCC[C@H]32)cc1F (mixture of isomers) [Example 23, Trans-N-((1-(tert-butoxy)propan-2-yl)oxy)-4-(3-(4-cyano-3-(trifluoromethyl)phenyl)-2-oxooctahydro-1H-benzo[d]imidazol-1-yl)-2-fluorobenzamide (±)]	< 5.00
